Earlier results as cited in patent US20010056087A1, “Use of 5alpha-androst-1en-3,17-diol to increase the level of the anabolic/androgenic hormone 17beta-hydroxy-5alpha-androst-1-en-3-one in humans” (priority 2000, published 2001).

Details: One hundred mg given orally to men

C[C@]12C=CC(=O)C[C@@H]1CC[C@@H]1[C@@H]2CC[C@]2(C)C(=O)CC[C@@H]12 [1-androstenedione, 5alpha-androst-1-en-3,17-dione]
excretion of 17beta-hydroxy-5alpha-androst-1-en-3-one in the urine (in-vivo conversion): considerable excretion of 17beta-hydroxy-5alpha-androst-1-en-3-one in the urine
